pIC50: −log10 of the molar value.
Key:
[1] = target: human Gal-3 (hGal-3) (Homo sapiens (Human), UniProt P17931); experiment: Competitive binding assay: biotinylated hGal-3 binding to microplate-adsorbed asialofetuin (ASF); details: Activity on hGal-3; binding of biotinylated hGal-3 to ASF-coated plates; mean values
Method in brief: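 Serially diluted compounds competed with biotinylated human Gal-3 for binding to plate-adsorbed asialofetuin over 3 h at 4 °C. Bound Gal-3 was detected with streptavidin-peroxidase (80 ng/mL, 1 h, 4 °C) and ABTS substrate. IC50 values are means of several measurements.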

[2] = target: human Gal-1 (hGal-1); experiment: Competitive binding assay: biotinylated hGal-1 binding to microplate-adsorbed asialofetuin (ASF); details: Activity on hGal-1; binding of biotinylated hGal-1 to ASF-coated plates; mean values
Method in brief: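 Inhibition measured as loss of hGal-1 (biotinylated, 300–1000 ng/mL, wild type or Cys→Ser mutant) binding to adsorbed asialofetuin over 3 h at 4 °C. Bound lectin detected with streptavidin-HRP and ABTS (410 nm, 30–45 min); IC50 values averaged across repeat measurements.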

human Gal-1 (hGal-1), sequence (P09382 2-135 limits assumed): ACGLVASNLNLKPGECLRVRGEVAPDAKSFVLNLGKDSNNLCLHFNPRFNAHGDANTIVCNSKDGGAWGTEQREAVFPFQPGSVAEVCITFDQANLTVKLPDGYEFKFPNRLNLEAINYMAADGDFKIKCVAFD
human Gal-3 (hGal-3), sequence (P17931 whole entry): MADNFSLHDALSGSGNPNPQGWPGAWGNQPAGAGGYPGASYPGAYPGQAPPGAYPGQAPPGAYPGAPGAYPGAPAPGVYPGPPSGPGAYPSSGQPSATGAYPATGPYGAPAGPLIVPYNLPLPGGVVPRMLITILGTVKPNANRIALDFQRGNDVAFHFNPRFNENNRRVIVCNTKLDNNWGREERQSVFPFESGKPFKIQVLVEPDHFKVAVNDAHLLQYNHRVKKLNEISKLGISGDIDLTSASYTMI

Structure (SMILES)	pIC50 [1]	pIC50 [2]
CO[C@@H]1[C@@H](n2cc(-c3cc(F)c(F)c(F)c3)nn2)[C@@H](O)[C@@H](CO)O[C@H]1C(=O)N(c1ccc(F)c(Br)c1)[C@H]1CCCC[C@@H]1O [Example 92, (2R,3R,4S,5R,6R)-N-(3-bromo-4-fluorophenyl)-5-hydroxy-N-((1S,2S)-2-hydroxycyclohexyl)-6-(hydroxymethyl)-3-methoxy-4-(4-(3,4,5-trifluorophenyl)-1H-1,2,3-triazol-1-yl)tetrahydro-2H-pyran-2-carboxamide]	7.74	6.47
CO[C@@H]1[C@@H](n2cc(-c3ccc(Br)c(F)c3F)nn2)[C@@H](O)[C@@H](CO)O[C@H]1C(=O)N(c1cc(Cl)cc(Cl)c1)[C@H]1CCCC[C@@H]1O [Example 177, (2R,3R,4S,5R,6R)-4-(4-(4-bromo-2,3-difluorophenyl)-1H-1,2,3-triazol-1-yl)-N-(3,5-dichlorophenyl)-5-hydroxy-N-((1S,2S)-2-hydroxycyclohexyl)-6-(hydroxymethyl)-3-methoxytetrahydro-2H-pyran-2-carboxamide]	7.89	6.07
O=C([C@@H]1O[C@H](CO)[C@H](O)[C@H](n2cc(-c3cc(F)c(F)c(F)c3)nn2)[C@H]1O)N(Cc1cnoc1)[C@H]1CCCC[C@@H]1O [Example 16, (2R,3R,4S,5R,6R)-3,5-dihydroxy-N-((1S,2S)-2-hydroxycyclohexyl)-6-(hydroxymethyl)-N-(isoxazol-4-ylmethyl)-4-(4-(3,4,5-trifluorophenyl)-1H-1,2,3-triazol-1-yl)tetrahydro-2H-pyran-2-carboxamide]	6.32	4.55
CO[C@@H]1[C@@H](n2cc(-c3cc(F)c(F)c(F)c3)nn2)[C@@H](O)[C@@H](CO)O[C@H]1C(=O)N(Cc1ccccc1C(F)(F)F)[C@H]1CCCC[C@@H]1O [Example 11, (2R,3R,4S,5R,6R)-5-hydroxy-N-((1S,2S)-2-hydroxycyclohexyl)-6-(hydroxymethyl)-3-methoxy-N-(2-(trifluoromethyl)benzyl)-4-(4-(3,4,5-trifluorophenyl)-1H-1,2,3-triazol-1-yl)tetrahydro-2H-pyran-2-carboxamide]	7.26	6.30
CO[C@@H]1[C@@H](n2cc(-c3cc(F)c(F)c(F)c3)nn2)[C@@H](O)[C@@H](CO)O[C@H]1C(=O)N(c1cc(Cl)ccc1F)[C@H]1CCCC[C@@H]1O [Example 105, (2R,3R,4S,5R,6R)-N-(5-chloro-2-fluorophenyl)-5-hydroxy-N-((1S,2S)-2-hydroxycyclohexyl)-6-(hydroxymethyl)-3-methoxy-4-(4-(3,4,5-trifluorophenyl)-1H-1,2,3-triazol-1-yl)tetrahydro-2H-pyran-2-carboxamide]	7.85	6.87
CO[C@@H]1[C@@H](n2cc(-c3cc(F)c(F)c(F)c3)nn2)[C@@H](O)[C@@H](CO)O[C@H]1C(=O)N(c1cc(F)cc(C#N)c1)[C@H]1CCCC[C@@H]1O [Example 113, (2R,3R,4S,5R,6R)-N-(3-cyano-5-fluorophenyl)-5-hydroxy-N-((1S,2S)-2-hydroxycyclohexyl)-6-(hydroxymethyl)-3-methoxy-4-(4-(3,4,5-trifluorophenyl)-1H-1,2,3-triazol-1-yl)tetrahydro-2H-pyran-2-carboxamide]	7.74	6.28
O=C([C@@H]1O[C@H](CO)[C@H](O)[C@H](n2cc(-c3cc(F)c(F)c(F)c3)nn2)[C@H]1O)N(Cc1ccccc1C(F)(F)F)[C@H]1CCCC[C@@H]1O [Example 7, (2R,3R,4S,5R,6R)-3,5-dihydroxy-N-((1S,2S)-2-hydroxycyclohexyl)-6-(hydroxymethyl)-N-(2-(trifluoromethyl)benzyl)-4-(4-(3,4,5-trifluorophenyl)-1H-1,2,3-triazol-1-yl)tetrahydro-2H-pyran-2-carboxamide]	7.24	5.91
CO[C@@H]1[C@@H](n2cc(-c3cc(F)c(F)c(Cl)c3)nn2)[C@@H](O)[C@@H](CO)O[C@H]1C(=O)N(c1ccc2ncsc2c1)[C@H]1CCCC[C@@H]1O [Example 131, (2R,3R,4S,5R,6R)-N-(benzo[d]thiazol-6-yl)-4-(4-(3-chloro-4,5-difluorophenyl)-1H-1,2,3-triazol-1-yl)-5-hydroxy-N-((1S,2S)-2-hydroxycyclohexyl)-6-(hydroxymethyl)-3-methoxytetrahydro-2H-pyran-2-carboxamide]	7.47	6.65
CO[C@@H]1[C@@H](n2cc(-c3cc(F)c(F)c(F)c3)nn2)[C@@H](O)[C@@H](CO)O[C@H]1C(=O)N(c1cccc2ccccc12)[C@H]1CCCC[C@@H]1O [Example 198, (2R,3R,4S,5R,6R)-5-hydroxy-N-((1S,2S)-2-hydroxycyclohexyl)-6-(hydroxymethyl)-3-methoxy-N-(naphthalen-1-yl)-4-(4-(3,4,5-trifluorophenyl)-1H-1,2,3-triazol-1-yl)tetrahydro-2H-pyran-2-carboxamide]	6.93	< 4.00
O=C(CO[C@@H]1[C@@H](n2cc(-c3cc(F)c(F)c(F)c3)nn2)[C@@H](O)[C@@H](CO)O[C@H]1C(=O)N(c1cc(Cl)cc(Cl)c1)[C@H]1CCCC[C@@H]1O)N1CC[C@@H](O)C1 [Example 126, (2R,3R,4S,5R,6R)—N-(3,5-dichlorophenyl)-5-hydroxy-N-((1S,2S)-2-hydroxycyclohexyl)-6-(hydroxymethyl)-3-(2-((R)-3-hydroxypyrrolidin-1-yl)-2-oxoethoxy)-4-(4-(3,4,5-trifluorophenyl)-1H-1,2,3-triazol-1-yl)tetrahydro-2H-pyran-2-carboxamide]	7.80	6.87
O=C([C@@H]1O[C@H](CO)[C@H](O)[C@H](n2cc(-c3ccc(Br)c(F)c3)nn2)[C@H]1O)N(Cc1ccccc1C(F)(F)F)[C@H]1CCCC[C@@H]1O [Example 70, (2R,3R,4S,5R,6R)-4-(4-(4-bromo-3-fluorophenyl)-1H-1,2,3-triazol-1-yl)-3,5-dihydroxy-N-((1S,2S)-2-hydroxycyclohexyl)-6-(hydroxymethyl)-N-(2-(trifluoromethyl)benzyl)tetrahydro-2H-pyran-2-carboxamide]	7.05	6.21
COc1cccc(N(C(=O)[C@@H]2O[C@H](CO)[C@H](O)[C@H](n3cc(-c4cc(F)c(F)c(F)c4)nn3)[C@H]2OC)[C@H]2CCCC[C@@H]2O)c1 [Example 101, (2R,3R,4S,5R,6R)-5-hydroxy-N-((1S,2S)-2-hydroxycyclohexyl)-6-(hydroxymethyl)-3-methoxy-N-(3-methoxyphenyl)-4-(4-(3,4,5-trifluorophenyl)-1H-1,2,3-triazol-1-yl)tetrahydro-2H-pyran-2-carboxamide]	7.44	6.10
CO[C@@H]1[C@@H](n2cc(-c3cc(F)c(F)c(F)c3)nn2)[C@@H](O)[C@@H](CO)O[C@H]1C(=O)N(Cc1cc(C)nn1C)[C@H]1CCCC[C@@H]1O [Example 47, (2R,3R,4S,5R,6R)-N-((1,3-dimethyl-1H-pyrazol-5-yl)methyl)-5-hydroxy-N-((1S,2S)-2-hydroxycyclohexyl)-6-(hydroxymethyl)-3-methoxy-4-(4-(3,4,5-trifluorophenyl)-1H-1,2,3-triazol-1-yl)tetrahydro-2H-pyran-2-carboxamide]	6.82	5.98

Now from value to compound:

pIC50 [1]	pIC50 [2]	Structure (SMILES)
7.77	6.62	CO[C@@H]1[C@@H](n2cc(-c3cc(C)cc(F)c3)nn2)[C@@H](O)[C@@H](CO)O[C@H]1C(=O)N(c1cc(Cl)cc(C#N)c1)[C@H]1CCCC[C@@H]1O [Example 190, (2R,3R,4S,5R,6R)-N-(3-chloro-5-cyanophenyl)-4-(4-(3-fluoro-5-methylphenyl)-1H-1,2,3-triazol-1-yl)-5-hydroxy-N-((1S,2S)-2-hydroxycyclohexyl)-6-(hydroxymethyl)-3-methoxytetrahydro-2H-pyran-2-carboxamide]
7.60	6.49	CO[C@@H]1[C@@H](n2cc(-c3cc(F)cc(Cl)c3)nn2)[C@@H](O)[C@@H](CO)O[C@H]1C(=O)N(c1cc(F)cc(Br)c1)[C@H]1CCCC[C@@H]1O [Example 136, (2R,3R,4S,5R,6R)-N-(3-bromo-5-fluorophenyl)-4-(4-(3-chloro-5-fluorophenyl)-1H-1,2,3-triazol-1-yl)-5-hydroxy-N-((1S,2S)-2-hydroxycyclohexyl)-6-(hydroxymethyl)-3-methoxytetrahydro-2H-pyran-2-carboxamide]
7.14	5.88	CO[C@@H]1[C@@H](n2cc(-c3cc(F)cc(F)c3)nn2)[C@@H](O)[C@@H](CO)O[C@H]1C(=O)N(c1cc(C)cc(C#N)c1)[C@H]1CCCC[C@@H]1O [Example 81, (2R,3R,4S,5R,6R)-N-(3-cyano-5-methylphenyl)-4-(4-(3,5-difluorophenyl)-1H-1,2,3-triazol-1-yl)-5-hydroxy-N-((1S,2S)-2-hydroxycyclohexyl)-6-(hydroxymethyl)-3-methoxytetrahydro-2H-pyran-2-carboxamide]
6.95	5.73	CO[C@@H]1[C@@H](n2cc(-c3cc(F)cc(F)c3)nn2)[C@@H](O)[C@@H](CO)O[C@H]1C(=O)N(c1cccc(C#N)c1)[C@H]1CCCC[C@@H]1O [Example 86, (2R,3R,4S,5R,6R)-N-(3-cyanophenyl)-4-(4-(3,5-difluorophenyl)-1H-1,2,3-triazol-1-yl)-5-hydroxy-N-((1S,2S)-2-hydroxycyclohexyl)-6-(hydroxymethyl)-3-methoxytetrahydro-2H-pyran-2-carboxamide]
7.36	6.79	CO[C@@H]1[C@@H](n2cc(-c3cccc(F)c3)nn2)[C@@H](O)[C@@H](CO)O[C@H]1C(=O)N(c1cc(Cl)cc(C#N)c1)[C@H]1CCCC[C@@H]1O [Example 74]

From patent US12291519B2, “2-hydroxycycloalkane-1-carbamoyl” (Idorsia Pharmaceuticals Ltd, priority 2019, dated 2025)
